Test results taken from patent US11325899B2, “Benzofurane and benzothiophene derivatives as PGE2 receptor modulators” (IDORSIA PHARMACEUTICALS LTD, priority 2017, dated 2022).

Target: T1, EP4 receptor (Homo sapiens, UniProt P35408)
T1 construct: BT549 breast cancer cells, express high endogenous EP4 levels and very low EP2 levels; host or cells: BT549 breast cancer cells
Experiment: hEP4 cAMP assay (BT549 breast cancer cells, HTRF cAMP, PGE2 stimulation)
Format: cell-based
Conditions: antagonistic activity, PGE2 6 nM (EC80)
Method in brief: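 BT549 cells, with endogenous EP4 and very low EP2, were preincubated 45 min at room temperature with compound in HBSS/HEPES/BSA buffer with 2 mM IBMX. They were then stimulated 30 min with 6 nM PGE2 (EC80). cAMP was measured by HTRF competitive immunoassay against a calibrator; IC50 from duplicate dose-response as % of DMSO control.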

T1 sequence (P35408 whole entry): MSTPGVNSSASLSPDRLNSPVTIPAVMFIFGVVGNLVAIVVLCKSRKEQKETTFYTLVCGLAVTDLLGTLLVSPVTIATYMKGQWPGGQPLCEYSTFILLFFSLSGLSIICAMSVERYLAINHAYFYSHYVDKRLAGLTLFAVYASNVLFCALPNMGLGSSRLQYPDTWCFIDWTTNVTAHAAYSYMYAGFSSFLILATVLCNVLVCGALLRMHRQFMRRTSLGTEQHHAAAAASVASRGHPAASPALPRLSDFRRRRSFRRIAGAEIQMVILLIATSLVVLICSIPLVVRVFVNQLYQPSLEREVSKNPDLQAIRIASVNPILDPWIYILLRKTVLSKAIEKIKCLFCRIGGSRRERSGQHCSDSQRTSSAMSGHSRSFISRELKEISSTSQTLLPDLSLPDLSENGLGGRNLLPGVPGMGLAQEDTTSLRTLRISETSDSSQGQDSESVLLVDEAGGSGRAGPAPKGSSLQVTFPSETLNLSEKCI

IC50	Structure (SMILES)
252 nM	CCCc1cc(-c2cc(NCCc3c(C)sc4c(C)cc(F)cc34)ncn2)ccc1CC(=O)O [Example 186, (4-{6-[2-(5-Fluoro-2,7-dimethyl-benzo[b]thiophen-3-yl)-ethylamino]-pyrimidin-4-yl}-2-propyl-phenyl)-acetic acid]
121 nM	CCOc1cc(-c2cc(NCCc3c(C)sc4c(C)cc(F)cc34)ncn2)ccc1C(=O)C(=O)O [Example 189, (2-Ethoxy-4-{6-[2-(5-fluoro-2,7-dimethyl-benzo[b]thiophen-3-yl)-ethylamino]-pyrimidin-4-yl}-phenyl)-oxo-acetic acid]
219 nM	CCCOc1cc(-c2cc(NCCc3c(C)sc4c(C)cc(F)cc34)ncn2)ccc1CC(=O)O [Example 190, (4-{6-[2-(5-Fluoro-2,7-dimethyl-benzo[b]thiophen-3-yl)-ethylamino]-pyrimidin-4-yl}-2-propoxy-phenyl)-acetic acid]
